We go through 88 compounds from a melting point compilation (Tetko et al.; mined from patent text by program, amines drawn as free bases though some values may be those of a salt).

Consider `Cc1nc2c(OCc3c(Cl)ccc(S(=O)(=O)N4CCC[C@H]4C(=O)NCCCNC(=O)c4ccc(C(N)=NO)cc4)c3Cl)cccn2c1Cl`, for which the melting point was 155 °C.

`CN(CCCCCCC(=O)O)c1cnc(-c2ccccc2)c(-c2ccccc2)n1` returned a melting point of 114 to 118 °C.

In turn, `COC(=O)C(C(=O)Cc1ccccc1)C1c2ccccc2C(=O)N1c1ccc2ccc(Cl)nc2n1` (stereo not drawn) yielded a melting point of 185 °C.

In turn, `COCCc1nc2c(N)nc3ccccc3c2n1CCCNC(=S)NC1CCCCC1` registered a melting point of 199 to 200 °C.

In turn, `O=C(Nc1ccc2ccc(Cl)nc2n1)c1cccc(Br)c1` came in with a melting point of 224 °C.

In turn, `COC(=O)C(O)=CC(=O)N(Cc1ccc(F)cc1)Cc1ccc(F)cc1` came in with a melting point of 118 to 120 °C.

`CCOC(=O)c1cccc(-c2nc(-c3cc(Cl)sc3Cl)cs2)c1` displayed a melting point of 125 to 126 °C.

The compound `COc1cc(CBr)c(OC)cc1Cl` gave a melting point of 85 to 88 °C.

In the case of `O=c1[nH]c(-c2c(F)cccc2F)nn1-c1ccccc1C(F)(F)F`, the melting point was 259 to 260 °C.

Consider `COc1ccc([C@@H]2CCc3cc(OC)ccc3[C@@H]2CCn2ccnc2)cc1` (relative stereo), for which the melting point is 121 °C.

With `OCCSC(=S)Nc1ccccn1`, the melting point was found to be 88 °C.

Consider `CCOC(=O)c1cn(C)c2nc3cc(N4CCNC(c5ccco5)C4)c(F)cc3cc2c1=O` (racemic), for which the melting point fell in the range of 198 to 200 °C.

The compound `CCOC(=O)c1ccc(OCC(=O)c2ccc3c(c2)C(C)(C)CCC3(C)C)cc1` registered a melting point of 105 to 107 °C.

`CCOC(=O)C(=O)c1cccc(NC=O)n1` had a melting point of 124 to 126 °C.

In turn, `CCOCc1nc2c(N)nc3cccnc3c2n1CCCC(C)N(OC)C(=O)NC(C)C` (stereo not drawn) showed a melting point of 174 to 175 °C.

With `COc1ccc2c(c1)sc1nc(CO)cn12`, the melting point is 202 to 205 °C.

The compound `Cc1ccc(CC2CCN(C(=O)CNc3ccc4c(c3)OCC(=O)N4)CC2)cc1` returned a melting point of 206 to 208 °C.

The compound `CC(C)Oc1ccnc2c1c(I)cn2S(=O)(=O)c1ccccc1` displayed a melting point of 151 to 153 °C.

Compound `CCCCOc1ccc(S(C)(=O)=O)cc1-c1nc2c(CC)n(CCN3CCOCC3)nc2c(=O)[nH]1` yielded a melting point of 235 to 238 °C.

As for `NCC(O)CNC(=O)CCCCCCCCCCCO` (stereo not drawn), the melting point stood at 119 °C.

In turn, `CC(C)Cn1c(CON2C(=O)c3ccccc3C2=O)nc2c(N)nc3ccccc3c21` showed a melting point of 221 to 222 °C.

With `Cc1nnc2ccc(-c3ccc(Cl)cc3)cn12`, the melting point is 192 to 194 °C.

In turn, `O=C1NCc2c(-c3ccccc3)cccc2N1CCN1CCOCC1` returned a melting point of 228 to 229 °C.

Consider `N#Cc1cccc(-c2cc(-c3cc(C#N)ccc3[N+](=O)[O-])no2)c1`, for which the melting point lay within 225 to 227 °C.

For the compound `CC12C=CCC1C1CCC3CC(O)CCC3C1CC2` (stereo not drawn), the melting point was 113 to 115 °C.

`CN(c1cccc2cc(-c3ncc(CCc4n[nH]c(=O)o4)s3)[nH]c12)S(=O)(=O)c1cccs1` registered a melting point of 255 to 256 °C.

`COc1ccc(CCc2ccncc2N)cc1OC1CCCC1` showed a melting point of 108 to 110 °C.

As for `COc1ccnc(CSc2nc3c(C(F)(F)F)cccc3[nH]2)c1C`, the melting point was 175 °C.

As for `O=C(Nc1ccccc1)c1cccc(Oc2cccc(C(F)(F)F)c2)n1`, the melting point was in the range of 92 to 93 °C.

With `NC1=NN(c2ccccn2)CC1`, the melting point lay in the range of 168 to 170 °C.

On to `CSN(C=C(C#N)C#N)c1cccc(C(C)=O)c1`, for which the melting point is 165 to 166 °C.

Take `COc1ncc(C=O)cc1Cl`: the melting point was found to be 152 °C.

The compound `CSc1ncc(Br)c(N(C)NC(=O)c2c(Cl)cccc2Cl)n1` registered a melting point of 254 to 256 °C.

Compound `O=c1[nH]nc2c3c(cccc13)N=C(CN1CCCN(S(=O)(=O)c3ccccc3)CC1)N2` returned a melting point of 265 to 268 °C.

Take `CCCCC(C(=O)O)C1=C(c2ccccc2)c2ccccc2OC1` (stereo not drawn): the melting point was 117 to 119 °C.

Compound `O=C(Nc1ccc(N2CCN(C(=O)Nc3ccc(OCCO)cc3C(F)(F)F)CC2)cc1)Nc1cccc2c1OCCO2` displayed a melting point of 127 to 129 °C.

Turning to `CCc1cn(C2CC(OCc3ccccc3)C(CNC(=O)Cc3c(Cl)cccc3Cl)O2)c(=O)[nH]c1=O` (stereo not drawn), the melting point lay in the range of 174 to 177 °C.

On to `O=C(On1nnc2ccccc21)c1ccc2c(c1)OC(c1ccccc1)(c1ccccc1)O2`, for which the melting point was 158 to 160 °C.

`COc1cc(C(=O)O)ccc1Cc1cn(C(C)C)c2ccc(CCCC(=O)N(C)C)cc12` displayed a melting point of 168 to 170 °C.

`Cn1c2c(c3ccccc31)SCCC2(C)C=O` (stereo not drawn) yielded a melting point of 119 to 123 °C.

`Cc1c(C)c(N2Cc3ccccc3C2)c(C)c2c1OC(C)(C)C2c1ccc(F)cc1` (stereo not drawn): the melting point lay in the range of 204 to 205 °C.

Regarding `CSc1ccc(NC2=C(C#N)CSC2)c([N+](=O)[O-])c1`, the melting point was 141 to 142 °C.

As for `O=C(Nc1ccc(Cl)c(C(F)(F)F)c1)N1COc2cc(OCc3ccccc3)ccc21`, the melting point was 135 to 136 °C.

Compound `Cc1ncc(-c2ccc(C(F)(F)F)cc2)c(NC2CCCCC2)n1` came in with a melting point of 220 to 225 °C.

In turn, `NC(=O)c1cccc(OC2C(C(=O)O)=CC=CN2Cc2ccccc2Cl)c1` (stereo not drawn) registered a melting point of 220 to 224 °C.

Turning to `Cc1c(C)c(O)c([Si](C)(C)C)c(C#C[Si](C)(C)C)c1O`, the melting point was in the range of 76 to 77 °C.

In turn, `Cc1ccccc1-n1ccc2nnc3c(C)cccc3c21` returned a melting point of 105 to 106 °C.

Compound `COc1ccc(-c2cc(=O)c3c(OC)cc(OC)c(C4=CCN(C)CC4)c3o2)c(OC)c1OC` gave a melting point of 209 to 210 °C.

For the compound `Cc1nnc2ccc(-c3cccc(F)c3)nn12`, the melting point was 184 to 186 °C.

`Cc1oc(-c2ccccc2)nc1COc1ccc(CON=C(CCCC(=O)O)c2ccccc2)cc1`: the melting point lay within 129 to 130 °C.

In the case of `CCCCCCCCOC(=O)C1=CC(=O)C(C(=O)OCCCCCCCC)=C(S(=O)(=O)c2ccc(C)cc2)C1=O`, the melting point lay within 75 to 77 °C.

The compound `Cc1ncn(-c2ccc(NC(=O)OCc3ccccc3)cc2F)n1` came in with a melting point of 153 to 155 °C.

In turn, `COc1ccc2c(c1)CCC1=C2CCC2(C)C(=O)CC=C12` (stereo not drawn) returned a melting point of 111 to 113 °C.

In turn, `Cc1nc2cccnc2nc1S(=O)Cc1ccccn1` (stereo not drawn) came in with a melting point of 120 to 125 °C.

`CN1CCC(N(C)S(=O)(=O)c2ccc(Nc3nccc(Nc4cc(F)c(F)c(F)c4)n3)cc2)CC1` registered a melting point of 227 °C.

For `O=C(O)c1cc(F)c(F)c(C2CC2)c1F`, the melting point is 95 to 97 °C.

`CCOC(=O)c1cnc2nn(CC)cc2c1OCC` showed a melting point of 111 to 113 °C.

In the case of `C=CCN(c1nc(N2CCN(C(=O)n3ccnc3)CC2)nc(N(CC=C)C2CCCCC2)n1)C1CCCCC1`, the melting point lay within 132 to 135 °C.

For the compound `Cc1cccc(SCn2cc(Br)cnc2=O)c1`, the melting point was 164 °C.

In turn, `Cc1c(CO)c2cnnc(OCc3ccccc3)c2n1Cc1ccccc1` displayed a melting point of 130 to 132 °C.

Compound `CCCCc1c(C(=O)N(C)Cc2ccc3c(Br)c(OCc4nnn[nH]4)ccc3c2)oc2ccccc12` returned a melting point of 180 to 183 °C.

In turn, `Cc1oc(-c2ccc3ccccc3c2)nc1COc1ccc(/C=C/CO)cc1` came in with a melting point of 159 to 160 °C.

As for `CS(=O)(=O)c1ccc(S(C)(=O)=O)nc1`, the melting point lay within 205 to 207 °C.

`O=C(c1cccnc1)c1cc(Br)cc(Br)c1` gave a melting point of 124 to 126 °C.

Take `Cc1ccc(N2N=C3c4cc(CCO)sc4CCC3CC2=O)cc1` (stereo not drawn): the melting point fell in the range of 159 to 160 °C.

As to `Cn1c(-c2cccc(C(F)(F)F)c2)cc(=O)n(-c2ccc(Cl)cc2F)c1=O`, the melting point is 139 to 142 °C.

As for `COC1=C(OC)C(=O)C(CCCCCCCCCCCCCCCCCC(=O)O)=C(C)C1=O`, the melting point is 77 to 79 °C.

Consider `O=C(O)c1c(Br)ccc(OC(F)(F)F)c1F`, for which the melting point turned out to be 112 °C.

As to `N#CC1(C#N)C2C=CC(C2)C1(Cl)C(F)(F)F` (stereo not drawn), the melting point was 173 °C.

As for `COc1ccc(N2CCN(c3c(C)c(C)c4c(c3C)CC(C)(C)O4)CC2)cc1C`, the melting point lay in the range of 137 to 141 °C.

Consider `C=CCSc1ccc(OCc2ccccc2)nn1`, for which the melting point is 56 to 58 °C.

`O=C(O)c1cc(S(=O)(=O)N2CCCC(OCc3ccccc3)C2)ccc1Br` (stereo not drawn) returned a melting point of 177 to 178 °C.

For `Nc1cccc2cccc(S)c12`, the melting point lay in the range of 69 to 72 °C.

The compound `CN(C)S(=O)(=O)CCc1ccccc1S(N)(=O)=O` returned a melting point of 134 to 136 °C.

`C#CC(O)(c1ccccc1)c1ccc([N+](=O)[O-])cc1` (stereo not drawn): the melting point fell in the range of 88 to 89 °C.

In turn, `Nc1cnc2c(F)c(F)ccc2c1` showed a melting point of 161 °C.

In the case of `COc1ccc(C(=O)N(c2ccccc2)c2ccc(OCCCN(C)C)cc2)cc1`, the melting point lay within 111 to 115 °C.

Consider `CC1(C)CC(=O)c2c(S(C)(=O)=O)sc(C(=O)O)c2C1`, for which the melting point amounted to 208 °C.

In the case of `Cn1cc(C2c3ccc(Cl)cc3C=Cc3sc(OCCn4ccnc4)nc32)c(=S)[nH]c1=O` (stereo not drawn), the melting point lay within 190 to 193 °C.

Compound `COc1ccc(C2=NN(Cc3ccccc3)C(=O)[C@H]3CCCC[C@@H]23)cc1OC` (relative stereo) registered a melting point of 86 to 88 °C.

`c1ccc2c(c1)CNc1ccccc1C2`: the melting point was in the range of 117 to 122 °C.

On to `O=[N+]([O-])c1nccn1CC(F)CO` (stereo not drawn), for which the melting point fell in the range of 84 to 89 °C.

For `COc1cc(C(=O)NC2CC(C)(C)N(C)C(C)(C)C2)ccc1-c1nc2cc(Cl)c(Cl)cc2n1C`, the melting point was 178 to 180 °C.

`COC(=O)CCCS(=O)(=O)c1c(Cc2cccc3ccccc23)sc2c1c(=O)n(C)c(=O)n2CC(C)C` showed a melting point of 122 to 124 °C.

Take `CCc1cn(C2OC(CO)C(O)C2O)c(=O)[nH]c1=O` (stereo not drawn): the melting point fell in the range of 180 to 181 °C.

For `O=C(c1c(Cl)cccc1[N+](=O)[O-])n1ccnc1-c1ccccc1`, the melting point is 147 to 148 °C.

The compound `COCc1c(C=NO)nc(Oc2nccc3ccccc23)c2[nH]c3ccccc3c12` gave a melting point of 107 to 112 °C.

Take `COc1cc(C2c3cc4c(cc3C(NC3=CC(=O)N(Cc5ccc(F)cc5)C3=O)C3COC(=O)C23)OCO4)cc(OC)c1O` (stereo not drawn): the melting point was 214 to 216 °C.

One may read the melting point as the temperature of the solid-liquid transition.
